Measurements taken from paper PMC3836662, “New Antimalarial Hits from Dacryodes edulis (Burseraceae) - Part I: Isolation, In Vitro Activity, In Silico “drug-likeness” and Pharmacokinetic Profiles” (PLoS ONE, 2013).
≈ marks a conversion by molar mass, not a printed value. Entries after “also recorded” stand apart in the source; their conditions may differ. Read-outs that look alike come from different tables or passages of the source.

How the values were obtained:
[1] = test system: Dd2 (multidrug-resistant) strain of Plasmodium falciparum; assay: Antiplasmodial screen, parasite lactate dehydrogenase (pLDH) assay, Dd2 strain; assay type: cell-based; conditions: for Activity against Dd2 IC50 / Activity against Dd2 IC95: P. falciparum Dd2, pLDH assay; for IC50: Plasmodium falciparum
Procedure: (§1) The 3D7 (MRA-102), and Dd2 (MRA-615) strains were kindly donated by BEI-Resources (MR4, Manassas, VA, USA), and maintained in continuous culture, with back up stored in liquid nitrogen.
(§2) The laboratory strains of P. falciparum were grown and maintained in culture using the method of Trager and Jensen with some modifications. All the chemicals except Albumax II (Gibco; Invitrogen, USA), were ordered from Sigma-Aldrich Inc (Germany). The cultures were monitored and parasitemia assessed using both fluorescence (acridine orange) and normal light (Giemsa stain) microscopes.
(§3) The antiplasmodial screen was carried out in 96-well microtitration plates as described by Desjardins et al. with some modifications. The different drug stock solutions were prepared by predisolving the powder in DMSO (200 µL for a final volume of 10 mL stock solution) and subsequently with the culture medium. The parasitaemia was measured using the parasite lactate dehydrogenase (pLDH) assay as previously described.
(§4) Each product was tested in triplicate, in two to three separate experiments, giving a total of six to nine repeats per product and per concentration tested. The IC50 and CC50 values obtained from the replicates were pooled and expressed as geometric mean IC50 and standard deviation. The different means were compared among themselves by independent samples t-test.

[2] = test system: 3D7 (chloroquine-susceptible) strain of Plasmodium falciparum; assay: Antiplasmodial screen, parasite lactate dehydrogenase (pLDH) assay, 3D7 strain; assay type: cell-based; conditions: for Activity against 3D7 IC95 / Activity against 3D7 IC50: P. falciparum 3D7, pLDH assay; for IC50: Plasmodium falciparum
Procedure: as §1, §2, §3, §4

[3] = Cytotoxicity on LLC-MK2 cells; assay type: cell-based, monkey; conditions: monkey, LLC-MK2 cells, read-out: Cytotoxicity against LLC-MK2 CC50
Procedure: (§5) The cytotoxicity of the extracts and pure compounds were estimated on LLC-MK2 monkey kidney epithelial cells as previously described with some modifications. The cell line was ordered from the American Type Culture Collection (ATCC, Manassas, Virginia, USA) and maintained in continuous culture.
as §4
(§6) The selectivity index defined as SI = CC50/IC50 was equally considered for compounds with mild cytotoxicity with SI<10 for toxic products. Based on these cut-off values, all products isolated from D. edulis in the present study were non-toxic against the LLC-MK2 cell-line.

[4] = test system: LLC-MK2 monkey kidney epithelial cells; assay: Cytotoxicity on LLC-MK2 cells; assay type: cell-based; conditions: SI = CC50/IC50, LLC-MK2 vs Dd2
Procedure: as §5, §4, §6

Dd2 [5] = assay: Stage-specific activity: variation of IC50 with exposure time, sorbitol-synchronized ring stage culture; assay type: cell-based; conditions: Plasmodium falciparum
Source text: As a preliminary study towards the understanding of the mechanisms of action of the active drugs, the stage-specific activity of the products was studied by investigation of the variation in IC50 values with exposure time.
Figure 2 Variation of IC50 against Dd2 with exposure time. […] The IC50 values presented were obtained from two distinct experiments run in duplicate each.

Dd2 [6] = assay: Drug-interaction study, fixed-ratio combinations, FIC / Combination Index / isobologram; assay type: cell-based, Plasmodium falciparum; conditions: for Increase of activity on combining DES4 and quinine: DES4 plus quinine
Procedure: From the results obtained with individual drugs, a stock solution of 32 x IC50 of each drug was prepared and used in preparing a series of six combinations ([1]–[6]) containing 5:0, 4:1, 3:2, 2:3, 1:4 and 0:5 proportions volume:volume of Drug A versus Drug B respectively. Each of these formulations were then tested and their different inhibitory concentrations determined separately.
IC50 values obtained for the different drug mixtures were used to calculate the Fractional Inhibitory Concentration (FIC) for each drug as described previously. FIC-A for example measures how much the presence of Drug B affects the activity of Drug A in the mixture, and vis versa.
FIC−A=IC50−A(comb.)/IC50−A(alone)
FIC−B=IC50−B(comb.)/IC50−B(alone)
A graph was constructed with the axes representing the mean FIC of linear scales, with mean FIC-A on the x axis and FIC-B on the y axis. When the combination is additive, the isobole which is the line joining the points that represent all the (x, y) points is straight. Synergistic combinations give concave isoboles, and antagonistic combinations give convex isoboles.
CI values were therefore calculated separately for both the drugs present in combinations 2 through 5; combinations 1 and 6 containing Drug A and Drug B alone. In addition to analyzing the result obtained with each drug combination formula, an overall mean CI value for the four combinations was determined to conclude on the interaction patterns of the two drugs being tested. Synergy or antagonism was defined as a mean CI< or >1, respectively, and lack of interaction (also termed additivity) defined as CI= 1 [21].
IC50 values were used to calculate the Fractional Inhibitory Concentration (FIC) for each drug as described previously. FIC-A measures how much the presence of a Drug B affects the activity of Drug-A in the mixture. […] Statistical significance was defined as p<0.05. A graph was constructed with the axes representing the mean FIC of linear scales, with mean FIC-A on the x-axis and FIC-B on the y-axis. When the combination is additive, the isobole which is the line joining the points that represent all the (x, y) points is straight. Synergistic combinations give concave isoboles, and antagonistic combinations give convex isoboles.
The overall mean CI value for the four combinations formulae was finally determined and synergy or antagonism between the two drugs in combination, defined as a mean CI< or >1, respectively, lack of interaction or additivity defined as CI = 1 [21].

[7] = 3D7, read-out: Activity against 3D7 IC50, P. falciparum 3D7, pLDH assay
[8] = DD2, P. falciparum Dd2, pLDH assay, read-out: Activity against Dd2 IC50
[9] = 3D7, P. falciparum 3D7, pLDH assay, read-out: Activity against 3D7 IC50
[10] = Dd2, synchronized ring stage, 24 hours exposure, read-out: IC50 against Dd2, exposure time 24 hours
[11] = Dd2, synchronized ring stage, 48 hours exposure, read-out: IC50 against Dd2, exposure time 48 hours
[12] = DES4 combined with quinine, Dd2

Compound | Activity against Dd2 IC50 [1] | Activity against Dd2 IC95 [1] [µg/mL] | Activity against 3D7 IC95 [2] [µg/mL] | CC50 [3] [µg/mL] | Selectivity index/Dd2 [4] | IC50 [1, 8] [µg/mL] | Activity against 3D7 IC50 [2] [µg/mL] | IC50 [2, 9] [µg/mL] | further results
C[C@@H]1O[C@@H](Oc2c(-c3ccc(O)cc3)oc3cc(O)cc(O)c3c2=O)[C@H](O)[C@H](O)[C@H]1O [DES2, Afzelin] | inactive | 35.03 ± 3.52 | 13.64 ± 0.48 | > 100 | > 5 |  |  |  | IC50 ([1]; DD2, read-out: Activity against Dd2 IC50, P. falciparum Dd2, pLDH assay): 19.3 ± 1.56 µg/mL (≈ 44.7 µM); IC50 [2, 7]: 4.59 ± 0.21 µg/mL (≈ 10.6 µM)
CC[C@H](CCC(C)C1CCC2C3CC=C4C[C@@H](O[C@@H]5O[C@H](CO)[C@@H](O)[C@H](O)[C@H]5O)CC[C@]4(C)C3CC[C@]12C)C(C)C (stereo partly drawn) [DES5, sitosterol 3-O-β-D-glucopyranoside sterol] | 5.34 ± 0.98 µg/mL | 21.35 ± 0.44 | 4.38 ± 0.87 |  | > 18 | < 10 | 1.90 ± 0.22 |  | Activity against 3D7 IC50 ([2]; listed as Sitosterol 3-O-β-D-glucopyranoside): below 10 µg/mL; CC50 ([3]; LLC-MK2 monkey kidney epithelial cells): > 100 µg/mL
C=C[C@H]1C[N@@]2CC[C@H]1C[C@H]2[C@H](O)c1ccnc2ccc(OC)cc12 [QN, Quinine sulphate, reference compound] |  | 0.38 ± 0.08 | 0.48 ± 0.10 |  |  | 0.12 ± 0.01 |  | 0.13 ± 0.01 | IC50 (Dd2 [5]; [10]): 0.21 µg/mL; IC50 (Dd2 [5]; [11]): 0.18 µg/mL; Increase of activity on combining DES4 and quinine (Dd2 [6]): 6 fold
O=c1c(O)c(-c2ccc(O)c(O)c2)oc2cc(O)cc(O)c12 [DES3, Quercetin] | 5.91 ± 0.97 µg/mL | 15.96 ± 4.79 | 15.19 ± 3.88 | > 100 | > 17 | < 10 | 6.07 ± 0.34 | < 10 | 
C[C@@H]1O[C@@H](Oc2c(-c3ccc(O)c(O)c3)oc3cc(O)cc(O)c3c2=O)[C@H](O)[C@H](O)[C@H]1O [DES1, Quercitrin] | below 10 µg/mL | 23.82 ± 6.35 | 18.53 ± 3.13 | > 100 | > 44 |  | 5.96 ± 0.51 |  | IC50 [2, 7]: < 10 µg/mL; IC50 (Dd2 [5]; DD2, 24 h, read-out: IC50 against Dd2, exposure time 24 hours): 1.41 µg/mL (≈ 3.14 µM); IC50 (Dd2 [5]; DD2, 48 h, read-out: IC50 against Dd2, exposure time 48 hours): 2.19 µg/mL (≈ 4.88 µM)
COC(=O)c1cc(O)c(O)c(O)c1 [DES4, methyl 3,4,5-trihydroxybenzoate] |  | 5.89 ± 0.95 | 2.58 ± 2.04 | > 100 | > 182 |  |  | 0.37 ± 0.07 (≈ 2.01 µM) | IC50 (Dd2 [5]; [10]): 6.32 µg/mL (≈ 34.3 µM); IC50 (Dd2 [5]; [11]): 0.56 µg/mL (≈ 3.04 µM); Combination Index, overall value (Dd2 [6]; DES4 combined with artemether): 1.10; Interaction pattern with artemether (Dd2 [6]; DES4 combined with artemether): additivity; also recorded: only additive effects; Combination Index, Combination 2 (Dd2 [6]; DES4 combined with quinine, Combination 2 (4:1), Dd2): 1.05; Combination Index, mean value (Dd2 [6]; [12]): 0.65; Interaction pattern with quinine (Dd2 [6]; [12]): synergy; also recorded: synergistic interactions; Increase of activity on combining DES4 and quinine (Dd2 [6]): 3 fold
CO[C@H]1O[C@@H]2O[C@@]3(C)CC[C@H]4[C@H](C)CC[C@@H]([C@H]1C)[C@@]24OO3 [ART, artemether, reference compound] |  | 0.12 ± 0.09 | 0.08 ± 0.02 |  |  | 0.03 ± 0.01 (≈ 0.101 µM) |  | 0.02 ± 0.01 (≈ 0.067 µM) | 
